In brackets after ≈: the same amount, converted by molar mass.
What was measured:
[1] = Metabolic stability in mouse liver microsomes assessed as intrinsic clearance at 1 uM preincubated for 10 mins followed by NADPH addition and further incubated upto 60 mins by LC-MS/MS analysis; assay type: ADME, Microsome; conditions: time 70 min, read-out: CLH
[2] = Metabolic stability in human liver microsomes assessed as half life at 1 uM preincubated for 10 mins followed by NADPH addition and further incubated upto 60 mins by LC-MS/MS analysis; assay type: ADME, Microsome; conditions: time 70 min
[3] = Plasma protein binding in human; assay type: ADME, cell-free; conditions: read-out: PPB (converted)
[4] = target: T1, Decaprenylphosphoryl-beta-D-ribose oxidase (Mycobacterium tuberculosis (strain ATCC 25618 / H37Rv), UniProt P9WJF1); assay: Inhibition of Mycobacterium tuberculosis H37Rv recombinant DprE1 expressed in Escherichia coli assessed as formation of resorufin using FPR as substrate by Amplex Red hydrogen/peroxidase coupled assay
T1 sequence (P9WJF1 whole entry): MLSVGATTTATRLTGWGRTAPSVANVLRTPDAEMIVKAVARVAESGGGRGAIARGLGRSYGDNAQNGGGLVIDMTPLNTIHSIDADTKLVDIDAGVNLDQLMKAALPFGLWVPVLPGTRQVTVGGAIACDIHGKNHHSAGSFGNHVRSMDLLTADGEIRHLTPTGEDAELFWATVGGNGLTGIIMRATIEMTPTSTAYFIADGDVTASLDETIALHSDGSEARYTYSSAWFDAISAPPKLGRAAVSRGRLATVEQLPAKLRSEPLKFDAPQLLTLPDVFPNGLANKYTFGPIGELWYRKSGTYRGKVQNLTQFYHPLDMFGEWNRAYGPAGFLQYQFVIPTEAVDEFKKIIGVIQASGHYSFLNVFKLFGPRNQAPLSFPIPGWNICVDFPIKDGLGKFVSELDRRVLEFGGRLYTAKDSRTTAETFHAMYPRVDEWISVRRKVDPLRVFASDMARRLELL

[5] = Metabolic stability in mouse liver microsomes assessed as half life at 1 uM preincubated for 10 mins followed by NADPH addition and further incubated upto 60 mins by LC-MS/MS analysis; assay type: ADME, Microsome; conditions: time 70 min
[6] = Metabolic stability in human liver microsomes assessed as intrinsic clearance at 1 uM preincubated for 10 mins followed by NADPH addition and further incubated upto 60 mins by LC-MS/MS analysis; assay type: ADME, Microsome; conditions: time 70 min, read-out: CLH
[7] = tested on: Mycobacterium tuberculosis; assay: Antitubercular activity against Mycobacterium tuberculosis H37Rv assessed as bacterial growth inhibition incubated for […] by MABA assay; assay type: functional
[8] = Thermodynamic solubility of compound at pH 7.4 aqueous phosphate buffer; assay type: physicochemical; conditions: read-out: Therm_solubility

Row | SMILES | IC50 [4] [µM] | MIC [7] [µM] | other results
1 | CS(=O)(=O)c1cc([N+](=O)[O-])c2sc(N3CCN(CC4CCCCC4)CC3)nc(=O)c2c1 | 0.05 | 0.01 (≈ 0.00467 µg/mL) | CLint scaled at 1 µM [1]: 129 mL/min/kg; half-life at 1 µM [2]: 28.8 min; fraction unbound [3]: 0.025; half-life at 1 µM [5]: 42.1 min; CLint scaled at 1 µM [6]: 60.5 mL/min/kg
2 | CS(=O)(=O)c1cc([N+](=O)[O-])c2sc(N3CCN(CC4CCCCC4)C4(CC4)C3)nc(=O)c2c1 | 3.9 | 0.04 (≈ 0.0197 µg/mL) | CLint scaled at 1 µM [1]: 163 mL/min/kg; solubility thermodynamic [8]: 0.7 µg/mL (≈ 1.42 µM); half-life at 1 µM [2]: 22.6 min; fraction unbound [3]: 0.016; half-life at 1 µM [5]: 33.5 min; CLint scaled at 1 µM [6]: 77 mL/min/kg
3 | CS(=O)(=O)c1cc([N+](=O)[O-])c2sc(N3CCN(S(=O)(=O)C4CC4)CC3)nc(=O)c2c1 | 7.1 | 0.3 (≈ 0.142 µg/mL) | 
4 | CS(=O)(=O)c1cc([N+](=O)[O-])c2sc(N3CCCN(S(=O)(=O)c4ccccc4)CC3)nc(=O)c2c1 |  | > 3.5 | 
5 | CC(C)CN1CCCN(c2nc(=O)c3cc(S(C)(=O)=O)cc([N+](=O)[O-])c3s2)CC1 | 1.3 | 0.07 (≈ 0.0308 µg/mL) | 
6 | CS(=O)(=O)c1cc([N+](=O)[O-])c2sc(N3CCN(Cc4cccs4)CC3)nc(=O)c2c1 |  | 0.25 (≈ 0.117 µg/mL) | 
7 | CS(=O)(=O)c1cc([N+](=O)[O-])c2sc(N3CCN(C(=O)c4ccccc4)CC3)nc(=O)c2c1 |  | > 64 | 
8 | CS(=O)(=O)c1cc([N+](=O)[O-])c2sc(N3CCN(CC4CCC(F)(F)CC4)CC3)nc(=O)c2c1 | 1.1 | 0.03 (≈ 0.0151 µg/mL) | CLint scaled at 1 µM [1]: 92.4 mL/min/kg; solubility thermodynamic [8]: 0.81 µg/mL (≈ 1.61 µM); half-life at 1 µM [2]: 38.6 min; fraction unbound [3]: 0.021; half-life at 1 µM [5]: 59 min; CLint scaled at 1 µM [6]: 45.1 mL/min/kg
9 | CS(=O)(=O)c1cc([N+](=O)[O-])c2sc(N3CCN(CC4CCOCC4)CC3)nc(=O)c2c1 | 10.3 | 0.51 (≈ 0.239 µg/mL) | 
10 | CS(=O)(=O)c1cc([N+](=O)[O-])c2sc(N3CCN(CC4CCC(C(F)(F)F)CC4)CC3)nc(=O)c2c1 (configuration not stated) |  | 1.87 (≈ 1 µg/mL) | 
11 | CS(=O)(=O)c1cc([N+](=O)[O-])c2sc(N3CCCN(S(=O)(=O)C4CC4)CC3)nc(=O)c2c1 | 16.7 | 0.94 (≈ 0.459 µg/mL) | 
12 | CC(C)CCN1CCCN(c2nc(=O)c3cc(S(C)(=O)=O)cc([N+](=O)[O-])c3s2)CC1 |  | 0.49 (≈ 0.223 µg/mL) | 
13 | CS(=O)(=O)c1cc([N+](=O)[O-])c2sc(N3CCN(CC4CCSCC4)CC3)nc(=O)c2c1 |  | 0.1 (≈ 0.0485 µg/mL) | 
14 | CS(=O)(=O)c1cc([N+](=O)[O-])c2sc(N3CCCN(CC4CCCCC4)CC3)nc(=O)c2c1 | 1.1 | 0.07 (≈ 0.0336 µg/mL) | 
15 | CS(=O)(=O)c1cc([N+](=O)[O-])c2sc(N3CCCN(CC4CCCC4)CC3)nc(=O)c2c1 | 4.4 | 0.15 (≈ 0.07 µg/mL) | 
16 | CS(=O)(=O)c1cc([N+](=O)[O-])c2sc(N3CCN(CC4CCCCC4)C(=O)C3)nc(=O)c2c1 |  | 0.07 (≈ 0.0336 µg/mL) | 
17 | CCS(=O)(=O)N1CCCN(c2nc(=O)c3cc(S(C)(=O)=O)cc([N+](=O)[O-])c3s2)CC1 |  | > 2 | 
18 | CS(=O)(=O)c1cc([N+](=O)[O-])c2sc(N3CCN(C(=O)C4CCCCC4)CC3)nc(=O)c2c1 |  | 0.96 (≈ 0.461 µg/mL) | 
19 | CCCCS(=O)(=O)N1CCN(c2nc(=O)c3cc(S(C)(=O)=O)cc([N+](=O)[O-])c3s2)CC1 | 1.4 | 0.09 (≈ 0.0442 µg/mL) | 
20 | CS(=O)(=O)c1cc([N+](=O)[O-])c2sc(N3CCCN(S(=O)(=O)c4cccs4)CC3)nc(=O)c2c1 |  | > 3.5 | 
21 | CS(=O)(=O)c1cc([N+](=O)[O-])c2sc(N3CCN(Cc4ccccc4)CC3)nc(=O)c2c1 |  | 0.21 (≈ 0.0967 µg/mL) | 
22 | CS(=O)(=O)c1cc([N+](=O)[O-])c2sc(N3CCN(S(=O)(=O)c4cccs4)CC3)nc(=O)c2c1 |  | 108 (≈ 55.8 µg/mL) | 
23 | CS(=O)(=O)c1cc([N+](=O)[O-])c2sc(N3CCN(S(=O)(=O)c4ccccc4)CC3)nc(=O)c2c1 |  | 0.33 (≈ 0.168 µg/mL) | 
24 | CC(C)CN1CCN(c2nc(=O)c3cc(S(C)(=O)=O)cc([N+](=O)[O-])c3s2)CC12CC2 |  | 0.17 (≈ 0.0769 µg/mL) | 
25 | CCS(=O)(=O)N1CCN(c2nc(=O)c3cc(S(C)(=O)=O)cc([N+](=O)[O-])c3s2)CC1 | 6.7 | 0.26 (≈ 0.12 µg/mL) | 
26 | CCCCS(=O)(=O)N1CCCN(c2nc(=O)c3cc(S(C)(=O)=O)cc([N+](=O)[O-])c3s2)CC1 |  | > 2 | 
27 | CS(=O)(=O)c1cc([N+](=O)[O-])c2sc(N3CCCN(Cc4ccccc4)CC3)nc(=O)c2c1 |  | 0.48 (≈ 0.228 µg/mL) | 
28 | CCCCCN1CCCN(c2nc(=O)c3cc(S(C)(=O)=O)cc([N+](=O)[O-])c3s2)CC1 |  | 0.49 (≈ 0.223 µg/mL) | 
29 | O=c1nc(N2CCN(CC3CCCCC3)CC2)sc2c([N+](=O)[O-])cc(C(F)(F)F)cc12 [MACOZINONE] |  |  | CLint scaled at 1 µM [1]: 174 mL/min/kg; solubility thermodynamic [8]: < 0.01 µg/mL; half-life at 1 µM [2]: 62.1 min; fraction unbound [3]: < 0.001; half-life at 1 µM [5]: 31.5 min; CLint scaled at 1 µM [6]: 28.1 mL/min/kg

Source: ChEMBL document CHEMBL5046318, “Development of 6-Methanesulfonyl-8-nitrobenzothiazinone Based Antitubercular Agents” (ACS Med Chem Lett, 2022)
